Here are results for 5 molecules from patent US10632170B2, “Administration of compstatin to an individual for the treatment of a tumor” (The Trustees of the University of Pennsylvania, priority 2008, dated 2020).

The test system of data set [1] is MDSCs obtained from tumors and spleens. The data set can be described thus: CD11b expression in MDSCs after stimulation in vitro (flow cytometry). The data set is classed as cell-based, mouse. Particulars: for CD11b upregulation in C5aR-deficient MDSCs: FIG. 6A-6D. On the procedure: Single-cell suspensions were pre-incubated with anti-mouse CD16/CD32 mAb (Fc block, 2.4G2; BD Pharmingen) to block Fcγ receptors, then incubated with primary antibody. Fluorochrome-conjugated mAbs against mouse CD3 (17A2), CD4 (L3T4), CD8 (53-6.7), CD11b (M1/70), CD25 (PC61), CD45 (30-F11), CD69 (H1.2F3) and Gr-1 (RB6-8C5), (all from BD Biosciences) were used according to the manufacturer's instructions. In order to determine C5aR cell-surface expression, cells were sequentially incubated with rabbit polyclonal anti-mouse C5aR (C1150-32, BD Biosciences) or rabbit isotype (BD Pharmingen, 550875) and FITC-conjugated anti-rabbit IgG (F0112, R&D Systems), or with rat anti-mouse C5aR (mAb clone 20/70 Hycult biotechnology b.v., distributor-Cell science Inc.) or rat isotype (BD Pharmingen, 553928) followed by FITC-conjugated anti-rat IgG (Zymed-Invitrogen). For some experiments cells were permeabilized with the use of fixation and perm/wash buffers (BD Biosciences) prior to C5aR staining. Stained cells were subjected to six-color flow cytometry on a FACSCanto flow cytometer (BD Biosciences) using FlowJo software (Tree Star Inc.).
The migration of PMN-MDSCs to tumors requires crossing of the endothelial barrier by MDSCs. Leukocytes, in order to leave the circulation and migrate to interstitial tissues, require the interaction of their integrins with adhesion molecules on endothelial cells. It was hypothesized that the same mechanisms apply to MDSCs migrating to tumor tissue. Since CD11b is the αm subunit of integrin CR3, which interacts with ICAM-1 expressed on endothelial cells during leukocyte extravasation, the changes in CD11b expression were evaluated in MDSCs obtained from tumors and spleens after C5a stimulation in vitro.

Data set [2] deals with MDSCs from spleens and tumors. The data set can be described thus: ROS and RNS production in MDSCs after stimulation in vitro (H2DCFDA). In kind it is cell-based, mouse. Particulars: for ROS and RNS production in spleen MDSCs of C5aR-deficient mice: MDSCs from spleens of C5aR-deficient mice; for ROS and RNS production in tumor-associated MDSCs: either subpopulation, data not shown. The method, then:
The oxidation sensitive dye 2′-7′-dichloro dihydrofluorescein diacetate (H2DCFDA) (Molecular Probes) was used for the measurement of ROS and RNS production in cells isolated from tumors or spleens. The excised tumors and spleens were mechanically disintegrated to obtain a single-cell suspension. Cells resuspended in DMEM were incubated with 2 μM of dye at 37° C. for 15 min. After washing with PBS, cells were stained for flow cytometry analysis as described above. MDSCs were distinguished from other cells present in the cell suspension as a viable CD45^+CD11b^+Gr-1^+ cell population, and the fluorescence intensity was estimated in the channel suitable for FITC according to the manufacturer's instruction. The amounts of ROS and RNS in cells were proportional to the intensity of fluorescence and were expressed as median fluorescence for gated populations. For some experiments, in addition to incubation with H2DCFDA, freshly isolated cells were simultaneously stimulated by 1, 10, or 100 nM of recombinant mouse C5a expressed as previously described (Strey et al., 2003, J. Exp. Med. 198:913-923) or 1 μM of phorbol myristate acetate (PMA; Sigma-Aldrich). Preliminary experiments have shown that stimulation of cells with 10 nM C5a induced the highest induction of ROS and RNS production.
To further verify the results obtained from these in vivo studies, MDSCs from spleens and tumors of wild-type mice were stimulated to produce ROS and RNS by incubating them with various concentrations of C5a in vitro. MDSCs isolated from C5aR-deficient mice were used as an additional control for these experiments. […] It was concluded that the unresponsiveness of tumor-associated MDSCs to in vitro C5a stimulation was a result of the strong stimulation of these cells for ROS and RNS production in vivo in the tumor microenvironment and the exhaustion of this system; therefore, further stimulation of these cells in vitro failed.

For data set [3] the following is noted: according to the manufacturer; cited from earlier work.
Data set [4] deals with TC-1 tumors. The data set can be described thus: TC-1 syngeneic tumor growth in mice (tumor volumes). In kind it is in vivo, mouse.
Method: To establish TC-1 tumors, male and female mice 6-16 weeks of age were anesthetized and injected subcutaneously (s.c.) with 1×10^5 TC-1 cells in the right or left rear flank. […] Beginning about 2 weeks after cell injection, mice were anesthetized, and their tumors were measured with calipers every 2-4 days until the tumor size required sacrificing of the animals. Measurements were taken in two dimensions (length and width) because the depth of the tumor was difficult to assess in live animals. The depth of the tumor was therefore estimated based on the smaller (width) measurement, and the volume of the tumor was calculated using the formula: (length×width×depth)±2. One hour prior to sacrifice, 5-bromo-2′-deoxyuridine (BrdU; Sigma) was injected intraperitoneally (i.p.) into mice at a single dose of 50 mg/kg for further assessment of tumor or immune cell proliferation. […] Excised tumors were measured in three dimensions to obtain an accurate volume and then weighed. Tumors and spleens were cut into sections for cell isolation, histologic examination, or freezing.
Control mice in the experiments utilizing C5aR antagonist or Taxol were injected s.c., or i.p., respectively, with ˜400 μl PBS alone, or in some cases, s.c. with the cyclic hexapeptide AcF[OPdChaA(d)R] […] The pattern of the administration of this control peptide to mice followed that described for the C5aR antagonist.
The effect of genotype or treatment on tumor growth (FIGS. 1-4) was analyzed with two-way analysis of variance (ANOVA) using GraphPad Prism (GraphPad Software, Inc.); the Bonferroni post-test correction was applied to control for the occurrence of false-positives. […] A p value equal to or less than 0.05 was considered significant.
The next data set deals with T1, C5aR (Mus musculus, UniProt P30993).
T1 construct: endogenous in cells; host or cells: host cells of living C57BL/6J mice bearing TC-1 tumours (in vivo)
T1 sequence (P30993 1-351): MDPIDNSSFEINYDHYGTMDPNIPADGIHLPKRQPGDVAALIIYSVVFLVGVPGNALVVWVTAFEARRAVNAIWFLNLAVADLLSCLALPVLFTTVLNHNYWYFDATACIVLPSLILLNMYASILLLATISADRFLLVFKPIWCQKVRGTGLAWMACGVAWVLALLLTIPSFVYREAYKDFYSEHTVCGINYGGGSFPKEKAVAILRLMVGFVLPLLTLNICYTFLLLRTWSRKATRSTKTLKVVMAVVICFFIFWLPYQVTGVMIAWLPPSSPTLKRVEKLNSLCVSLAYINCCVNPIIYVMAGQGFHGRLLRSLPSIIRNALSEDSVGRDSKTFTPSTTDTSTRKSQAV
Conditions: cited from earlier work.

The test system of data set [5] is TC-1 tumors. Put plainly: Tumor cell proliferation, apoptosis and angiogenesis in end-point tumor specimens. Particulars: C5aR antagonist vs PBS. The data set is classed as in vivo, mouse. On the procedure: The morphology of tumors and spleens was assessed by light microscopy (Olympus BX 60) of hematoxylin and eosin-stained 5-μm paraffin sections. To assess the number of cells in the S phase of the cell cycle, paraffin sections from tumors and spleens were stained with anti-BrdU. The presence of apoptotic cells in tumor sections was determined by staining for the activated caspase-3 site on cytokeratin 18. Both assays were performed as described previously (Markiewski et al., 2004, J. Immunol. 173:747-754). The microvascular density of engrafted tumors was evaluated by immunofluorescent staining for CD31 expression on endothelial cells in frozen sections. The bound biotinylated anti-CD31 (MEC 13.3-BD Biosciences) was visualized with a streptavidin-rhodamine complex (BD Biosciences). Fluorescence was evaluated by standard fluorescent microscopy (Olympus BX 60 microscope). BrdU incorporation into tumor cells and the microvascular density of tumors were quantified in 5-10 microscopic fields (400× for BrdU and 100× for microvascular density) with the use of ImageJ image analysis software (NIH, Bethesda, Md.), and mean values were calculated. Apoptosis was assessed in a semi-quantitative manner: Scores from 0 to 4 were assigned to sections, depending on the size of the area occupied by apoptotic cells. All analyses were performed in a blinded fashion.

For another data set, the system named is arginase-1. Put plainly: Arginase-1 expression in tumor whole-cell extracts (immunoblot). The data set is classed as in vivo, mouse. Particulars: C5aR antagonist-treated vs control mice; without reaching statistical difference; FIG. 7F. The method, then:
Whole-cell extracts were prepared from tumor tissue mechanically disrupted in lysis buffer (20 mM HEPES, pH 7.4, 0.2 mM EDTA, 420 mM NaCl, 1.5 mM MgCl2, 20% glycerol) treated with protease and phosphatase inhibitors (1 mM DTT, 0.1 mM PMSF, 0.1 mM Na3VO4, 1 mM NaF, 1 mM β-glycerophosphate, and 2 μg/ml each of antipain dihydrochloride, aprotinin, bestatin and leupeptin). For each protein sample, 40 μg was electrophoresed on a 12% polyacrylamide gel and transferred to a PVDF membrane. Membranes were incubated overnight at 4° C. with mouse monoclonal arginase I (8C9) antibody (Santa Cruz Biotechnology) or mouse monoclonal β-actin (AC-15) antibody (Abeam). Primary antibody binding was detected using HRP-conjugated anti-mouse antibody (Bio-Rad Laboratories, Inc.) and chemiluminescence (Amersham Pharmacia Biotech, Inc.). Protein loading was normalized according to the abundance of β-actin, with Ponceau S-stained membranes used for verification. Protein expression was quantified by densitometry using ImageQuant software (Molecular Dynamics).
On the technique in general: In western blotting, separated proteins are transferred to a membrane and probed.

The test system of data set [6] is TC-1 tumors. Put plainly: Immune cell infiltration of tumors (immunofluorescent staining for CD8, CD11b). The data set is classed as in vivo, mouse. The method, then:
The deposition of C3 cleavage products in tumor tissue was detected using a rat anti-mouse C3 mAb (clone 2/11), as described previously (Mastellos et al, 2004, Mol. Immunol. 40:1213-1221). […] Therefore, the positive reactivity in the tissue is thought to be associated with the activation of the complement cascade and C3 cleavage. C1q and MBL deposition were evaluated with the use of a rat anti-mouse C1q mAb (Abeam, Inc.) and a polyclonal goat anti-mouse MBL (Santa Cruz Biotechnology, Inc.), respectively. These sections were co-stained with the use of biotinylated anti-mouse CD31 to visualize tumor vasculature. CD8^+ T cell and myeloid-origin cell infiltrations of tumors were analyzed using anti-mouse CD8 and anti-mouse CD11b, respectively. Isotypic rat IgGs were used as a negative control. Anti-CD31, anti-CD8 and anti-CD11b and isotype controls were purchased from BD Biosciences. Primary antibodies bound in tissue were detected with donkey anti-rat or anti-goat Cy2-conjugated antibodies (The Jackson Laboratory), except for anti-CD31, which was visualized with a streptavidin-rhodamine complex (BD Biosciences). Immunofluorescent staining was performed on frozen, 5-μm-thick sections. For detection of complement deposition, green and red fluorescence images were merged with the use of Spot software (Diagnostic instruments, Inc.). CD8^+ tumor infiltrates were quantified using ImageJ image analysis software (NIH), positive cells were counted in whole tissue sections and means were calculated. The magnitude of CD11b^+ infiltrates was assessed in a semi-quantitative manner because of the relatively low numbers of infiltrating cells. Scores from 0 to 5 were assigned to sections, according to the relative intensity of the infiltrates. In addition, the distribution of infiltrating cells was analyzed. All analyses were performed in a blinded fashion.

As for `CCCCCCCCCCCCCC(=O)O[C@@H]1[C@@H](C)[C@@]2(O)[C@@H](C=C(CO)C[C@]3(O)C(=O)C(C)=C[C@@H]23)[C@@H]2C(C)(C)[C@]12OC(C)=O` [PMA, phorbol myristate acetate], in data set [1], the “CD11b upregulation in C5aR-deficient MDSCs” value is reported as “response”. Also, in data set [2] (FIG. 7H, 7I), the “ROS and RNS production in spleen MDSCs of C5aR-deficient mice” value was “brisk response”. Also, in data set [2], the “ROS and RNS production in tumor-associated MDSCs” value is “lack of an increase”.

As a reminder, the LD50 is the dose expected to kill half of the subjects tested. `CC(=O)O[C@H]1C(=O)[C@@]2(C)[C@H]([C@H](OC(=O)c3ccccc3)[C@]3(O)C[C@H](OC(=O)[C@H](O)[C@@H](NC(=O)c4ccccc4)c4ccccc4)C(C)=C1C3(C)C)[C@]1(OC(C)=O)CO[C@@H]1C[C@@H]2O` [Taxol, Paclitaxel]: the median lethal dose (LD50) in data set [3] is 128 mg/kg. The “suppressive effect on tumor growth compared with genetic C5aR deficiency” value with TC-1 tumors [4] (wild-type mice treated with Taxol vs C5aR-KO mice treated with PBS, FIG. 3C) is recorded as “similar”.

With AcF[OPdChaA(d)R], the “ability to block C5aR signaling” value on C5aR (literature (Finch et al., 1999; Johswich et al., 2006)) is listed as “does not have the ability to block C5aR signaling”.

“Acetyl-Phe-[Orn-Pro-D-cyclohexylalanine-Trp-Arg] [C5aR antagonist]”: on C5aR (literature (Kohl et al., 2006; Holland et al.)), the “blockade of C5a-mediated effects in rodent disease models” value is recorded as “specifically block C5a-mediated effects”. For the same molecule, in the data set on TC-1 tumors [5], the “tumor cell proliferation and apoptosis, and the extent of angiogenesis” value is “only minimal differences”. Moreover, in the data set with arginase-1, the “arginase-1 expression in tumors” value was “only slightly lower”. The “further inhibition of tumor growth in C5aR-deficient mice” value with TC-1 tumors [4] (C5aR-deficient mice, in comparison to mice treated with control peptide) was “did not induce any further inhibition of tumor growth”. The “tumor growth versus control mice treated with PBS” value in the data set on TC-1 tumors [4] (wild-type mice, 1 mg/kg s.c. every 2-3 days beginning 1 week after tumor cell injection, FIG. 3A) is listed as “impaired tumor growth”. For the same molecule, the “inhibition of tumor growth compared with Taxol treatment” value with TC-1 tumors [4] (wild-type mice, C5aR antagonist 1 mg/kg s.c. vs Taxol 20 mg/kg i.p. once per week, FIG. 3A) was “comparable to that achieved by treatment with this anti-cancer therapeutic”. In addition, in the data set on TC-1 tumors [6] (C5aR antagonist-treated mice, in control mice throughout the tumor sections), the “location of CD11b+ cells in tumors” value was “located only at the periphery of the tumors”. Moreover, in the data set on TC-1 tumors [6] (C5aR antagonist-treated vs PBS-treated mice, FIG. 5F), the “number of cells expressing CD11b in tumor sections” value is listed as “lower”. In addition, the “CD8+ cells infiltrating the tumor tissue” value in the data set on TC-1 tumors [6] (C5aR antagonist-treated vs control mice, FIG. 4A) is “heavily infiltrated by CD8^+ cells”.

B1: C5a: recombinant mouse C5a anaphylatoxin used to stimulate MDSCs in vitro (protein)
chain: NLHLLRQKIEEQAAKYKHSVPKKCCYDGARVNFYETCEERVARVTIGPLCIRAFNECCTIANKIRKESPHKPVQLGR
B1: the “CD11b upregulation in C5aR-deficient MDSCs” value in data set [1] is recorded as “lack of CD11b upregulation”. Also, the “expression of CD11b in MO-MDSCs” value in data set [1] (MO-MDSCs, 10 nM C5a, FIG. 6C, 6D) is “did not respond”. Further, in data set [1] (PMN-MDSCs from spleens and tumors, 10 nM C5a, FIG. 6A, 6B), the “expression of CD11b in wild-type PMN-MDSCs” value is given as “significant increase”. Besides, the “C5a concentration giving the highest induction of ROS and RNS production” value in data set [2] (1, 10 or 100 nM tested, preliminary experiments) is recorded as 10 nM. The “ROS and RNS production in spleen MDSCs of C5aR-deficient mice” value in data set [2] (FIG. 7H, 7I) is recorded as “did not respond”. For the same molecule, the “ROS and RNS production in spleen MDSCs of wild-type mice” value in data set [2] (both subpopulations, vs non-stimulated cells from the same mouse, FIG. 7H, 7I) is “increasing their ROS and RNS production”. Further, the “ROS and RNS production in tumor-associated MDSCs” value in data set [2] is “did not respond”.
